Results reported in patent publication US8822503B2, “2-pyridone compounds” (Taisho Pharmaceutical Co., Ltd, priority 2009, dated 2014).

The compounds below were run against T1, human liver GK (Homo sapiens, UniProt P35557) (assay: GK activation test). Settings: test compound concentration needed to activate 50% of maximum activation ability; 4 mM 14C-labeled glucose, 2 mM ATP, room temperature, 20 minutes.
T1 construct: GST (glutathione S-transferase) (N); made in house; host or cells: E. coli
T1 sequence (P35557 1-466 isoform P35557-2): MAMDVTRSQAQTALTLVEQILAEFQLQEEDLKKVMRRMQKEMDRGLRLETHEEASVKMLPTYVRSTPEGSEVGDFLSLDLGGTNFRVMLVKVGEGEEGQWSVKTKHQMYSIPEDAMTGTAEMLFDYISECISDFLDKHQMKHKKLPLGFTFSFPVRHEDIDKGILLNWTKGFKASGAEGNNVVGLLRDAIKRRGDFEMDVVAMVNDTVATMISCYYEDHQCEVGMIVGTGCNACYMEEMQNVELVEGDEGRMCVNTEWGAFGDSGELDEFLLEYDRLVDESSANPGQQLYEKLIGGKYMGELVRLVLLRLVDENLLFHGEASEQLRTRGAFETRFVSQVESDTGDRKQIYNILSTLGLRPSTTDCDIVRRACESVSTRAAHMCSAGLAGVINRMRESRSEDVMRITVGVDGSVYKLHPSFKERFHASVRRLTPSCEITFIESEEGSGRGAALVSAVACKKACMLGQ
Format: biochemical
Procedure, shortened: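 GST-tagged human liver GK from E. coli (0.24 μg/well) with 4 mM 14C-glucose, 2 mM ATP in Hepes-KOH pH 7.1, KCl, MgCl2, DTT, 1% DMSO, 20 min room temperature. Labeled glucose 6-phosphate captured on anion resin, eluted and counted. EC50 = concentration giving half of maximal activation.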

SMILES | EC50 [µM]
Cc1cc(/C(=C\[C@H]2CCC(=O)N2)c2ccc(C3CC3)c(=O)[nH]2)ccc1S(=O)(=O)C1CC1 [Example 4-54, 3-Cyclopropyl-6-{(E)-1-[4-(cyclopropylsulfonyl)-3-methylphenyl]-2-[(2R)-5-oxopyrrolidin-2-yl]ethenyl}pyridin-2(1H)-one] | 0.01 to 0.5
Cc1cc(/C(=C\[C@H]2CCC(=O)N2)c2ccc(Cl)c(=O)[nH]2)ccc1S(=O)(=O)C1CC1 [Example 4-55, 3-Chloro-6-{(E)-1-[4-(cyclopropylsulfonyl)-3-methylphenyl]-2-[(2R)-5-oxopyrrolidin-2-yl]ethenyl}pyridin-2(1H)-one] | 0.01 to 0.5
CS(=O)(=O)c1ccc(/C(=C\[C@H]2CCC(=O)N2)c2ccc(Cl)c(=O)[nH]2)cc1C(F)(F)F [Example 4-56, 3-Chloro-6-{(E)-1-[4-(methylsulfonyl)-3-(trifluoromethyl)phenyl]-2-[(2R)-5-oxopyrrolidin-2-yl]ethenyl}pyridin-2(1H)-one] | 0.5 to 3
O=C1CC[C@H](/C=C(\c2ccc(S(=O)(=O)C3CC3)cc2)c2ccc(Cl)c(=O)[nH]2)N1 [Example 4-57, 3-Chloro-6-{(E)-1-[4-(cyclopropylsulfonyl)phenyl]-2-[(2R)-5-oxopyrrolidin-2-yl]ethenyl}pyridin-2(1H)-one] | 0.01 to 0.5
CCS(=O)(=O)c1ccc(/C(=C\[C@H]2CCC(=O)N2)c2ccc(Cl)c(=O)[nH]2)cc1Cl [Example 4-58, 3-Chloro-6-{(E)-1-[3-chloro-4-(ethylsulfonyl)phenyl]-2-[(2R)-5-oxopyrrolidin-2-yl]ethenyl}pyridin-2(1H)-one] | 0.5 to 3
O=C1CC[C@H](/C=C(\c2ccc(S(=O)(=O)C3CC3)c(Cl)c2)c2ccc(Cl)c(=O)[nH]2)N1 [Example 4-59, 3-Chloro-6-{(E)-1-[3-chloro-4-(cyclopropylsulfonyl)phenyl]-2-[(2R)-5-oxopyrrolidin-2-yl]ethenyl}pyridin-2(1H)-one] | 0.01 to 0.5
O=C1CC[C@H](/C=C(\c2ccc(S(=O)(=O)C3CCCC3)cc2)c2ccc(Cl)c(=O)[nH]2)N1 [Example 4-60, 3-Chloro-6-{(E)-1-[4-(cyclopentylsulfonyl)phenyl]-2-[(2R)-5-oxopyrrolidin-2-yl]ethenyl}pyridin-2(1H)-one] | 0.01 to 0.5
CN1CCN(S(=O)(=O)c2ccc(/C(=C\[C@H]3CCC(=O)N3)c3ccc(Cl)c(=O)[nH]3)cc2)CC1 [Example 4-61, 3-Chloro-6-{(E)-1-{4-[(4-methylpiperazin-1-yl)sulfonyl]phenyl}-2-[(2R)-5-oxopyrrolidin-2-yl]ethenyl}pyridin-2(1H)-one] | 0.5 to 3
CCN(CC)CCCCOc1ccc(/C(=C\[C@H]2CCC(=O)N2)c2ccc(C3CC3)c(=O)[nH]2)cc1Cl [Example 4-62, 6-{(E)-1-{3-Chloro-4-[4-(diethylamino)butoxy]phenyl}-2-[(2R)-5-oxopyrrolidin-2-yl]ethenyl}-3-cyclopropylpyridin-2(1H)-one] | 0.01 to 0.5
CCN(CC)CCCCOc1ccc(/C(=C\[C@H]2CCC(=O)N2)c2ccc(Cl)c(=O)[nH]2)cc1Cl [Example 4-63, 3-Chloro-6-{(E)-1-{3-chloro-4-[4-(diethylamino)butoxy]phenyl}-2-[(2R)-5-oxopyrrolidin-2-yl]ethenyl}pyridin-2(1H)-one] | 0.5 to 3
O=C1CC[C@H](/C=C(\c2ccc(OCCCCN3CCCC3)c(Cl)c2)c2ccc(Cl)c(=O)[nH]2)N1 [Example 4-64, 3-Chloro-6-{(E)-1-{3-chloro-4-[4-(pyrrolidin-1-yl)butoxy]phenyl}-2-[(2R)-5-oxopyrrolidin-2-yl]ethenyl}pyridin-2(1H)-one] | 0.01 to 0.5
CCN(CC)CCCOc1ccc(/C(=C\[C@H]2CCC(=O)N2)c2ccc(C3CC3)c(=O)[nH]2)cc1 [Example 4-65, 3-Cyclopropyl-6-{(E)-1-{4-[3-(diethylamino)propoxy]phenyl}-2-[(2R)-5-oxopyrrolidin-2-yl]ethenyl}pyridin-2(1H)-one] | 0.5 to 3
CC(C)c1ccc(/C(=C\[C@H]2CCC(=O)N2)c2ccc(C3CC3)c(=O)[nH]2)cc1 [Example 4-67, 3-Cyclopropyl-6-{(E)-2-[(2R)-5-oxopyrrolidin-2-yl]-1-[4-(propan-2-yl)phenyl]ethenyl}pyridin-2(1H)-one] | 0.01 to 0.5
CCC(=O)N1CC[C@H](/C=C(\c2ccc(C(C)(C)C)cc2)c2ccc(Cl)c(=O)[nH]2)C1 [Example 4-68, 6-{(E)-1-(4-tert-Butylphenyl)-2-[(3R)-1-propanoylpyrrolidin-3-yl]ethenyl}-3-chloropyridin-2(1H)-one] | 0.01 to 0.5
CC(C)(C)c1ccc(/C(=C\[C@H]2CCC(=O)N2)c2ccc(Cl)c(=O)[nH]2)cc1Cl [Example 4-71, 6-{(E)-1-(4-tert-Butyl-3-chlorophenyl)-2-[(2R)-5-oxopyrrolidin-2-yl]ethenyl}-3-chloropyridin-2(1H)-one] | 0.01 to 0.5
CCS(=O)(=O)N1CC[C@H](/C=C(\c2ccc(C(C)(C)C)cc2)c2ccc(Cl)c(=O)[nH]2)C1 [Example 4-72, 6-{(E)-1-(4-tert-Butylphenyl)-2-[(3R)-1-(ethylsulfonyl)pyrrolidin-3-yl]ethenyl}-3-chloropyridin-2(1H)-one] | 0.01 to 0.5
COCCCCc1ccc(/C(=C\[C@H]2CCC(=O)N2)c2ccc(Cl)c(=O)[nH]2)cc1 [Example 4-73, 3-Chloro-6-{(E)-1-[4-(4-methoxybutyl)phenyl]-2-[(2R)-5-oxopyrrolidin-2-yl]ethenyl}pyridin-2(1H)-one] | 0.5 to 3
CC(C)(C)c1ccc(/C(=C\[C@H]2CCC(=O)N2)c2ccc(C(F)(F)F)c(=O)[nH]2)cc1 [Example 4-74, 6-{(E)-1-(4-tert-Butylphenyl)-2-[(2R)-5-oxopyrrolidin-2-yl]ethenyl}-3-(trifluoromethyl)pyridin-2(1H)-one] | 0.01 to 0.5
CC(C)(C)c1ccc(/C(=C\[C@@H]2CCC(=O)N2)c2ccc(Cl)c(=O)[nH]2)cc1 [Example 4-75, 6-{(E)-1-(4-tert-Butylphenyl)-2-[(2S)-5-oxopyrrolidin-2-yl]ethenyl}-3-chloropyridin-2(1H)-one] | 3 to 10
O=C(C1CC1)N1CC[C@H](/C=C(\c2ccc(Cl)cc2)c2ccc(C3CC3)c(=O)[nH]2)C1 [Example 4-78, 6-{(E)-1-(4-Chlorophenyl)-2-[(3R)-1-(cyclopropylcarbonyl)pyrrolidin-3-yl]ethenyl}-3-cyclopropylpyridin-2(1H)-one] | 0.01 to 0.5
CN1CCOc2cc(/C(=C\[C@H]3CCC(=O)N3)c3ccc(Cl)c(=O)[nH]3)ccc21 [Example 4-79, 3-Chloro-6-{(E)-1-(4-methyl-3,4-dihydro-2H-1,4-benzoxazin-7-yl)-2-[(2R)-5-oxopyrrolidin-2-yl]ethenyl}pyridin-2(1H)-one] | 0.5 to 3
CC(C)c1ccc([C@@H](C[C@H]2CCC(=O)N2)c2ccc(C3CC3)c(=O)[nH]2)cc1 [Example 4-80, 3-Cyclopropyl-6-{(1R)-2-[(2R)-5-oxopyrrolidin-2-yl]-1-[4-(propan-2-yl)phenyl]ethyl}pyridin-2(1H)-one] | 0.01 to 0.5
CC(C)c1ccc(/C(=C\[C@H]2CCC(=O)N2)c2ccc(C3CC3)c(=O)[nH]2)cc1Cl [Example 4-81, 6-{(E)-1-[3-Chloro-4-(propan-2-yl)phenyl]-2-[(2R)-5-oxopyrrolidin-2-yl]ethenyl}-3-cyclopropylpyridin-2(1H)-one] | 0.01 to 0.5
CC(C)c1ccc(/C(=C/[C@H]2CCC(=O)N2)c2ccc(Cl)c(=O)[nH]2)cc1 [Example 4-82, 3-Chloro-6-{(Z)-2-[(2R)-5-oxopyrrolidin-2-yl]-1-[4-(propan-2-yl)phenyl]ethenyl}pyridin-2(1H)-one] | 3 to 10
CC(C)(C)c1ccc(/C(=C\[C@H]2CCC(=O)N2)c2ccc(C3CC3)c(=O)[nH]2)cc1 [Example 4-83, 6-{(E)-1-(4-tert-Butylphenyl)-2-[(2R)-5-oxopyrrolidin-2-yl]ethenyl}-3-cyclopropylpyridin-2(1H)-one] | 0.01 to 0.5
CC(C)c1ccc(/C(=C\[C@H]2CCC(=O)N2)c2ccc(Cl)c(=O)[nH]2)cc1Cl [Example 4-84, 3-Chloro-6-{(E)-1-[3-chloro-4-(propan-2-yl)phenyl]-2-[(2R)-5-oxopyrrolidin-2-yl]ethenyl}pyridin-2(1H)-one] | 0.01 to 0.5
O=C1CC[C@H](/C=C(\c2ccc(C3CC3)cc2)c2ccc(Cl)c(=O)[nH]2)N1 [Example 4-88, 3-Chloro-6-{(E)-1-(4-cyclopropylphenyl)-2-[(2R)-5-oxopyrrolidin-2-yl]ethenyl}pyridin-2(1H)-one] | 0.5 to 3
CN1CCN(S(=O)(=O)c2ccc(C(C[C@H]3CCC(=O)N3)c3ccc(Cl)c(=O)[nH]3)cc2)CC1 (stereo partly drawn) [Example 4-89, 3-Chloro-6-(1-{4-[(4-methylpiperazin-1-yl)sulfonyl]phenyl}-2-[(2R)-5-oxopyrrolidin-2-yl]ethyl)pyridin-2(1H)-one] | 3 to 10
O=C1CC[C@H](/C=C(\c2ccc(OC3CC3)cc2)c2ccc(Cl)c(=O)[nH]2)N1 [Example 4-90, 3-Chloro-6-{(E)-1-[4-(cyclopropyloxy)phenyl]-2-[(2R)-5-oxopyrrolidin-2-yl]ethenyl}pyridin-2(1H)-one] | 0.5 to 3
CC(C)(C)c1ccc(/C(=C\[C@H]2CCN(C(=O)C3CC3)C2)c2ccc(Cl)c(=O)[nH]2)cc1 [Example 4-92, 6-{(E)-1-(4-tert-Butylphenyl)-2-[(3R)-1-(cyclopropylcarbonyl)pyrrolidin-3-yl]ethenyl}-3-chloropyridin-2(1H)-one] | 0.01 to 0.5
